Measured values: paper PMC11066877, “Development and Characterization of Novel FAP-Targeted Theranostic Pairs: A Bench-to-Bedside Study” (Research, 2023)

What was measured:
[1] = molecular target: T1, recombinant human FAP protein (Homo sapiens, UniProt Q12884); experiment: SPR binding to immobilized recombinant human FAP protein
T1 construct: purchased ACRO Biosystems FAP-H5244
T1 sequence (Q12884 1-760): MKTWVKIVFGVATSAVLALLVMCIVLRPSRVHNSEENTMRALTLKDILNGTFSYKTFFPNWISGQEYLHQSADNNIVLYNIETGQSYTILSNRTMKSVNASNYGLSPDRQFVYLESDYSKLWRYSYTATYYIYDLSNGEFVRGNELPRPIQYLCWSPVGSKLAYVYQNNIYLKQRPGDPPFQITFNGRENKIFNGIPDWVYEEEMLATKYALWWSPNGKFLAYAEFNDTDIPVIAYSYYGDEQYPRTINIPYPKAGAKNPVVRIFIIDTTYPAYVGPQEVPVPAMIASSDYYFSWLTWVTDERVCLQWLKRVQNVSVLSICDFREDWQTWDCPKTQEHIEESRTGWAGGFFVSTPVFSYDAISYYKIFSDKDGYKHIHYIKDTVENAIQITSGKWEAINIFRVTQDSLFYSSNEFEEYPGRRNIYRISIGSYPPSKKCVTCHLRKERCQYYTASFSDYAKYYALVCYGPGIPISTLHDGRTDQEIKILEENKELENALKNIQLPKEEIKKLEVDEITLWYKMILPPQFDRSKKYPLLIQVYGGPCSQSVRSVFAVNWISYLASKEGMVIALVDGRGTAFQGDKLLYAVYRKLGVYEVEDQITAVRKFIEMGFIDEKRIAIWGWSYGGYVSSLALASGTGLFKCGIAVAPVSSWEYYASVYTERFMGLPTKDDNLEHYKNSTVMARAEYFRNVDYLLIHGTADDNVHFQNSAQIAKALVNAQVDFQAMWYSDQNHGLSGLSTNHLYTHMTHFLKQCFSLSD
Protocol: (§1) The Biacore SPR interaction study was conducted to determine the binding kinetics between the peptides and the immobilized human FAP protein (FAP-H5244, ACRO Biosystems) or murine FAP protein (FAP-M52H3, ACRO Biosystems) as target antigens. The final binding affinity, represented by the equilibrium dissociation degree (M) or KD, was calculated by examining the relationship between the binding rate constant (ka) (M^−1 s^−1) and the dissociation rate (kd) (s^−1).

[2] = molecular target: T2, recombinant murine FAP protein (Mus musculus, UniProt P97321); experiment: SPR binding to immobilized recombinant murine FAP protein
T2 construct: purchased ACRO Biosystems FAP-M52H3
T2 sequence (P97321 1-761): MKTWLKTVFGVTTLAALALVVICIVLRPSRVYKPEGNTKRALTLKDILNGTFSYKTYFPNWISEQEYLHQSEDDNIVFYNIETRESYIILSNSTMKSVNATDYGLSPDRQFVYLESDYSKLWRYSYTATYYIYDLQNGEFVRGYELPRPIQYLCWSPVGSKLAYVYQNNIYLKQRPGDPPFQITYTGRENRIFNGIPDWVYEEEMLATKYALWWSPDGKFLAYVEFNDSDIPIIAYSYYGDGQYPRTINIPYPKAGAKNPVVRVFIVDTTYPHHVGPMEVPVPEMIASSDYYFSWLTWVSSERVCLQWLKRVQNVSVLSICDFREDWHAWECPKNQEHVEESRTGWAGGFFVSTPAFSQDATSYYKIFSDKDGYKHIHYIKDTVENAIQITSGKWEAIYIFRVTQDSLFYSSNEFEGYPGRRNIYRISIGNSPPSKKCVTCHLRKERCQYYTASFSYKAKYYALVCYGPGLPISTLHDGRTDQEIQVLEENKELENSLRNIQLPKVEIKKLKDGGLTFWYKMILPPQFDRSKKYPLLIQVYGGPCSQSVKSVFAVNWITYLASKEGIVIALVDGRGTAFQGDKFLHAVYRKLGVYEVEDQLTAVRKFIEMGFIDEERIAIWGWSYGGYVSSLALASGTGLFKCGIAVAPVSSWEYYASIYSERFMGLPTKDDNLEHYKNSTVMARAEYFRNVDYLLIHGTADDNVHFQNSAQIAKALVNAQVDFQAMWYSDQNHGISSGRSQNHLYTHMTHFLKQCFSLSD
Protocol: as §1

[3] = microPET/CT imaging, ROI analysis, BxPC-3 tumor models; assay type: in vivo, mice; conditions: nude (thymus-free), mouse, intravenous, 3 MBq, 4 h p.i.
Protocol: (§2) A human pancreatic cancer cell line BxPC-3 and a murine pancreatic cancer cell Panc-02 were obtained from the American Type Culture Collection. The pancreatic cancer cell line T3M-4 was purchased by MeisenCTCC (Zhejiang, China). BxPC-3 and T3M-4 cell lines were grown in RPMI 1640 medium (Shanghai BasalMedia Technologies Co., LTD.) containing 10% FBS (GE Healthcare, Chicago, IL, USA) and 1% penicillin–streptomycin solution (Invitrogen). To culture the Panc-02 cell line, a medium called Dulbecco’s modified Eagle medium from Shanghai BasalMedia Technologies Co., LTD. was used, which consisted of 10% FBS. The cell line HT-1080 was grown in MEM medium (Shanghai BasalMedia Technologies Co., LTD.) supplemented with 10% FBS, 1% penicillin-streptomycin solution, and 1% nonessential amino acids (NEAA-11140050; Gibco). A human fibrosarcoma cell line was stably transfected with FAP (HT1080-FAP) and cultured, as we previously described. All cell lines were cultured in a humid incubator with 5% CO2 at a temperature of 37 °C. Approval was granted by the Institutional Animal Care and Use Committee (Renji Hospital, School of Medicine, Shanghai Jiao Tong University) for all experimental protocols and procedures related to animal care. Panc-02 cells were implanted by subcutaneous injection of 5 × 10^6 tumor cells suspended in 100 μl PBS and matrigel matrix (Corning) with equal volume into the upper limb flank of C57BL/6 mice (Shanghai Sheng Chang Biotechnology Co., Ltd.). Four- to 6-week-old thymus-free nude mice (GemPharmatech) were subcutaneously inoculated with BxPC-3, T3M-4, HT-1080, and HT1080-FAP cells (5 × 10^6 in 100 μl of PBS mixing with 100 μl matrigel matrix) in the right shoulder. […]
(§3) MicroPET imaging was performed on isoflurane-anesthetized mice injected intravenously via the lateral tail vein with around 3 MBq (2.5 nmol) of the radioligand at certain times. […] The information was analyzed using OsiriX Lite software (Pixmeo SARL) and Inveon Research Workplace (Siemens Preclinical Solutions). […]

[4] = microPET/CT imaging, ROI analysis, Panc-02 tumor models; assay type: in vivo, mice; conditions: C57BL/6, mouse, intravenous, 3 MBq, 4 h p.i.
Protocol: as §2, §3

[5] = microPET/CT imaging, ROI analysis, HT-1080 tumor models; assay type: in vivo, mice; conditions: nude (thymus-free), mouse, intravenous, 3 MBq, 4 h p.i.
Protocol: as §2, §3

[6] = microPET/CT imaging, ROI analysis, HT1080-FAP tumor models; assay type: in vivo, mice; conditions: nude (thymus-free), mouse, intravenous, 3 MBq, HT1080-FAP tumor
Protocol: (§4) A human pancreatic cancer cell line BxPC-3 and a murine pancreatic cancer cell Panc-02 were obtained from the American Type Culture Collection. The pancreatic cancer cell line T3M-4 was purchased by MeisenCTCC (Zhejiang, China). BxPC-3 and T3M-4 cell lines were grown in RPMI 1640 medium (Shanghai BasalMedia Technologies Co., LTD.) containing 10% FBS (GE Healthcare, Chicago, IL, USA) and 1% penicillin–streptomycin solution (Invitrogen). To culture the Panc-02 cell line, a medium called Dulbecco’s modified Eagle medium from Shanghai BasalMedia Technologies Co., LTD. was used, which consisted of 10% FBS. The cell line HT-1080 was grown in MEM medium (Shanghai BasalMedia Technologies Co., LTD.) supplemented with 10% FBS, 1% penicillin-streptomycin solution, and 1% nonessential amino acids (NEAA-11140050; Gibco). A human fibrosarcoma cell line was stably transfected with FAP (HT1080-FAP) and cultured, as we previously described. All cell lines were cultured in a humid incubator with 5% CO2 at a temperature of 37 °C. Approval was granted by the Institutional Animal Care and Use Committee (Renji Hospital, School of Medicine, Shanghai Jiao Tong University) for all experimental protocols and procedures related to animal care. Panc-02 cells were implanted by subcutaneous injection of 5 × 10^6 tumor cells suspended in 100 μl PBS and matrigel matrix (Corning) with equal volume into the upper limb flank of C57BL/6 mice (Shanghai Sheng Chang Biotechnology Co., Ltd.). Four- to 6-week-old thymus-free nude mice (GemPharmatech) were subcutaneously inoculated with BxPC-3, T3M-4, HT-1080, and HT1080-FAP cells (5 × 10^6 in 100 μl of PBS mixing with 100 μl matrigel matrix) in the right shoulder. Follow-up microPET/CT imaging and ex vivo biodistribution experiments were performed when the tumor diameter reached 8 to 9 mm.
MicroPET imaging was performed on isoflurane-anesthetized mice injected intravenously via the lateral tail vein with around 3 MBq (2.5 nmol) of the radioligand at certain times. Regarding the FD1 blocking group, an excessive amount of unlabeled FD1 (200-fold) was simultaneously injected with [^68Ga]Ga-DOTA-FD1 into the tail vein of another batch of mice. Images were acquired using an IRIS PET/CT system (Inviscan Imaging Systems). PET data were reconstructed using a nonscatter-corrected 3D-ordered subset expectation […]/maximum a posteriori (OSEM3D/MAP) algorithm. The information was analyzed using OsiriX Lite software (Pixmeo SARL) and Inveon Research Workplace (Siemens Preclinical Solutions). The percentage of injected dose per gram of tissue (%ID/g, mean ± SD) was utilized to present the distribution of tracers in the ROI, encompassing tumor, heart, lung, liver, kidney, and muscle.

[7] = Ex vivo biodistribution after imaging, HT-1080 tumor models; assay type: in vivo, mice; conditions: nude (thymus-free), mouse, intravenous, 3 MBq, total radioactivity, 4.5 h p.i.
Protocol: A human pancreatic cancer cell line BxPC-3 and a murine pancreatic cancer cell Panc-02 were obtained from the American Type Culture Collection. The pancreatic cancer cell line T3M-4 was purchased by MeisenCTCC (Zhejiang, China). BxPC-3 and T3M-4 cell lines were grown in RPMI 1640 medium (Shanghai BasalMedia Technologies Co., LTD.) containing 10% FBS (GE Healthcare, Chicago, IL, USA) and 1% penicillin–streptomycin solution (Invitrogen). To culture the Panc-02 cell line, a medium called Dulbecco’s modified Eagle medium from Shanghai BasalMedia Technologies Co., LTD. was used, which consisted of 10% FBS. The cell line HT-1080 was grown in MEM medium (Shanghai BasalMedia Technologies Co., LTD.) supplemented with 10% FBS, 1% penicillin-streptomycin solution, and 1% nonessential amino acids (NEAA-11140050; Gibco). […]
After imaging collection and image reconstruction, samples from euthanized experimental mice, including blood and multiple significant organs, were harvested and weighed. The radioactivity in each collected tissue was counted using an automated gamma counter (Wizard 2480, PerkinElmer) and the accumulation of radioactivity in different tissues and organs was quantified and expressed as %ID/g (mean ± SD). […] At the end of each probe imaging and radioactivity counting study, tumor tissues were fixed in paraformaldehyde tissue fixative. […]

[8] = Ex vivo biodistribution after imaging, HT1080-FAP tumor models; assay type: in vivo, mice; conditions: nude (thymus-free), mouse, intravenous, 3 MBq, total radioactivity; HT1080-FAP tumor, 4.5 h p.i.
Protocol: as §4
After imaging collection and image reconstruction, samples from euthanized experimental mice, including blood and multiple significant organs, were harvested and weighed. The radioactivity in each collected tissue was counted using an automated gamma counter (Wizard 2480, PerkinElmer) and the accumulation of radioactivity in different tissues and organs was quantified and expressed as %ID/g (mean ± SD). [^177Lu]Lu-DOTA-FD1 (~1.11 MBq, n = 3), [^177Lu]Lu-DOTA-FD2 (~1.11 MBq, n = 3), and [^177Lu]Lu-DOTA-FD3 (~1.11 MBq, n = 3) were injected into the tail vein of free nude mice at 6 h, 24 h, and 24 h for ex vivo biodistribution to verify the circulation time of the 3 probes in vivo. Biodistribution data from tumor-bearing mice injected with [^177Lu]Lu-DOTA-FD3 at 45 h (~1.11 MBq, n = 4) and 90 h (~1.11 MBq, n = 3) validated the prolonged enrichment of the probe at the tumor site. At the end of each probe imaging and radioactivity counting study, tumor tissues were fixed in paraformaldehyde tissue fixative. Briefly, sections of 10 μm were cut and stained for H&E following the standard protocols. IHC staining with a FAP antibody (ab227703, Abcam) was performed only on tumor tissues following accepted techniques.

Structure (SMILES): CCCCCC(=O)N[C@H]1CSCc2cc(CSCCNC(=O)[C@H](CCCCNC(=O)CCCc3ccc(I)cc3)NC(=O)CN3CCN(CC(=O)O)CCN(CC(=O)O)CCN(CC(=O)O)CC3)cc(c2)CSC[C@@H](C(=O)O)NC(=O)[C@H](Cc2ccccc2)NC(=O)[C@H](CCC(N)=O)NC(=O)[C@H]([C@@H](C)O)NC(=O)[C@@H]2CCCN2C(=O)[C@@H]2CCCN2C1=O [FD2]
- Kd [1]: 2.06 nM
- Kd [2]: 11.6 nM

Structure (SMILES): CCCCCC(=O)N[C@H]1CSCc2cc(CSCCNC(=O)[C@H](CCCCN)NC(=O)[C@@H](NC(=O)[C@H](CCSC)NC(=O)CN3CCN(CC(=O)O)CCN(CC(=O)O)CCN(CC(=O)O)CC3)C(C)C)cc(c2)CSC[C@@H](C(=O)O)NC(=O)[C@H](Cc2ccccc2)NC(=O)[C@H](CCC(N)=O)NC(=O)[C@H]([C@@H](C)O)NC(=O)[C@@H]2CCCN2C(=O)[C@@H]2CCCN2C1=O [FD1]
- Kd [1]: 3.3 nM
- Kd [2]: 10.2 nM

Structure (SMILES): CCCCCC(=O)N[C@H]1CSCc2cc(CSCCNC(=O)[C@H](CCCCNC(=O)CCCc3ccc(I)cc3)NC(=O)[C@@H](NC(=O)[C@H](CCSC)NC(=O)CN3CCN(CC(=O)O)CCN(CC(=O)O)CCN(CC(=O)O)CC3)C(C)C)cc(c2)CSC[C@@H](C(=O)O)NC(=O)[C@H](Cc2ccccc2)NC(=O)[C@H](CCC(N)=O)NC(=O)[C@H]([C@@H](C)O)NC(=O)[C@@H]2CCCN2C(=O)[C@@H]2CCCN2C1=O [FD3]
- Kd [1]: 6.25 nM
- Kd [2]: 13.7 nM

Structure (SMILES): CCCCCC(=O)N[C@H]1CSCc2cc(CSCCNC(=O)[C@H](CCCCNC(=O)CCCc3ccc(I)cc3)NC(=O)CN3CCN(CC(=O)O)CCN(CC(=O)O)CCN(CC(=O)O)CC3)cc(c2)CSC[C@@H](C(=O)O)NC(=O)[C@H](Cc2ccccc2)NC(=O)[C@H](CCC(N)=O)NC(=O)[C@H]([C@@H](C)O)NC(=O)[C@@H]2CCCN2C(=O)[C@@H]2CCCN2C1=O [[^68Ga]Ga-DOTA-FD2, metal not drawn]
- tissue uptake at 4 h [3]: 7.67 ± 0.38 %ID/g
- tissue uptake at 4 h [4]: 6.9 ± 0.51 %ID/g
- tissue uptake at 4 h [5]: 8.1 ± 0.52 %ID/g
- tissue uptake at 0.5 h ([6]; 30 min): 6.63 ± 0.64 %ID/g
- tissue uptake at 2 h ([6]; 2 h): 8.23 ± 2.61 %ID/g
- tissue uptake at 4 h ([6]; 4 h): 9.37 ± 0.61 %ID/g
- tissue uptake at 4.5 h [7]: 10.4 ± 1.84 %ID/g
- tissue uptake at 4.5 h [8]: 11.9 ± 1.83 %ID/g
